{
  "source": "patent US20170251707A1",
  "about": "“PROCESS FOR THE PRODUCTION OF LOW COLORIE SWEETENER COMPOSITIONS AND USES THEREOF” (priority 2016, published 2017)",
  "key": {"[1]": {"conditions": "cited from earlier work"}, "[2]": {"conditions": "cited from earlier work", "remark": "listed apart in the source"}, "[3]": {"conditions": "cited from earlier work", "remark": "listed apart in the source"}, "intestinal sucrase": {"test_system": "intestinal sucrase", "conditions": "porcine intestinal mucosa, in vitro; cited from earlier work"}, "[4]": {"conditions": "cited from earlier work", "remark": "listed apart in the source"}, "[5]": {"conditions": "acute (test meal) and sub chronic (twice a day for 9 week), after sucrose feeding; cited from earlier work"}, "[6]": {"conditions": "healthy and type 2 diabetic subjects, sucrose with 4% added L-Arabinose; cited from earlier work"}, "[7]": {"conditions": "humans, after six months; cited from earlier work"}, "[8]": {"conditions": "rats, HCHF diet; cited from earlier work"}, "[9]": {"conditions": "pre-exercise ingestion; cited from earlier work"}, "[10]": {"conditions": "alone or in combination with fructose, compared with glucose alone; cited from earlier work"}, "[11]": {"conditions": "blood plasma testing; cited from earlier work"}, "[12]": {"conditions": "HFD-fed mice; cited from earlier work"}, "[13]": {"conditions": "continuous intravenous, 1 g/kg body weight, human subjects; cited from earlier work"}, "[14]": {"test": "In vivo study: test beverage, postprandial glucose and insulin responses", "design": "species or system people", "conditions": "versus 25 g sucrose control, p=0.0001", "description": "FIGS. 3 and 4 represent the outcome of an in vivo study performed using 15 previously selected people. Selected subjects arrived at the labs between 8 am and 9:45 am, and the start time for each subject was kept as similar as possible. After being weighed, 2 fasting blood samples at 5 min intervals were collected; subjects started to consume a test beverage (sweetener mixed with water) which was consumed in its entirety within 5 min. A timer was started at the first sip of the beverage, and further capillary blood samples were obtained at t=15, 30, 45, 60, 90 and 120±2 min, for the determination of glucose and insulin concentrations. Blood samples were collected into 2 separate vials: one (2-3 drops blood) for glucose analysis and the other (8-10 drops of blood) for insulin. Before and during the test, a blood glucose test record was filled out with the subject's initials, ID number, date, body weight, test meal, time of starting to eat, time it took to eat, time and composition of last meal, and any unusual activities. At the beginning and end, participants were asked to fill out a symptom questionnaire. During the 2 hours of the test, participants remain seated quietly. After the last blood sample was obtained participants were offered a snack and allowed to leave. […]"}, "[15]": {"conditions": "sucrose in combination with L-Arabinose versus sucrose"}, "[16]": {"conditions": "oral 15, 35 or 75 g in 250 ml, versus water alone"}},
  "note": "Read-outs that look alike come from different tables or passages of the source.",
  "data": [
    {"smiles": "O=C[C@H](O)[C@@H](O)[C@H](O)[C@H](O)CO", "note": "[D-glucose, reference compound]", "values": [
      {"measurement": "incremental area under the glucose response curve (AUC)", "setting": "[1]; oral 15 or 75 g in 250 ml", "result": "significant dose-dependent increase"},
      {"measurement": "incremental area under the insulin response curve (AUC)", "setting": "[1]; oral 15 or 75 g in 250 ml", "result": "significant dose-dependent increase"},
      {"measurement": "reduction in blood glucose levels", "setting": "[2]; after 180 minute", "result": 20, "unit": "%"},
      {"measurement": "increment / elevation of blood glucose levels", "setting": "[2]; healthy human subjects", "result": 52, "unit": "%"}
    ]},
    {"smiles": "OC[C@@H](O)[C@@H](O)CO", "note": "[Erythritol, (2R,3S)-butane-1,2,3,4-tetraol]", "values": [
      {"measurement": "excretion", "setting": "[3]; human metabolism, for the most part", "result": "excreted unchanged in the urine"},
      {"measurement": "absorption", "setting": "[3]; human metabolism", "result": "absorbed into the bloodstream in the small intestine"},
      {"measurement": "increases in blood sugar levels", "setting": "[3]; in vivo", "result": "does not induce increases"},
      {"measurement": "laxative effects", "setting": "[3]; in vivo", "result": "does not normally cause laxative effects"},
      {"measurement": "tooth decay", "setting": "[3]; in vivo", "result": "does not cause"},
      {"measurement": "gastric side effects", "setting": "[3]; unlike other sugar alcohols", "result": "unlikely to cause"}
    ]},
    {"smiles": "O=C[C@H](O)[C@@H](O)[C@@H](O)CO", "note": "[L-Arabinose]", "values": [
      {"measurement": "effect on intestinal sucrase activity", "setting": "intestinal sucrase", "result": "inhibitory effect"},
      {"measurement": "liver triacylglycerol concentrations", "setting": "[4]; rats fed with sucrose, additional feeding of L-Arabinose", "result": "prevented this increase"},
      {"measurement": "blood glucose response", "setting": "[4]; [15]", "result": "suppressed"},
      {"measurement": "insulin response", "setting": "[4]; [15]", "result": "suppressed"},
      {"measurement": "blood glucose", "setting": "[5]", "result": "suppressed"},
      {"measurement": "increases in plasma glucose", "setting": "[6]", "result": "reduced"},
      {"measurement": "increases in serum insulin", "setting": "[6]", "result": "reduced"},
      {"measurement": "diastolic blood pressure", "setting": "[7]", "result": "slightly decreased"},
      {"measurement": "high-density lipoprotein cholesterol", "setting": "[7]", "result": "slightly increased"},
      {"measurement": "waist circumference, total cholesterol, fasting glucose, serum uric acid, low-density lipoprotein cholesterol", "setting": "[7]", "result": "decreased"},
      {"measurement": "body weight, lee's index, visceral index", "setting": "[8]", "result": "lower"},
      {"measurement": "dyslipidemia, insulin resistance, inflammation, and viscera function", "setting": "[8]", "result": "improve"}
    ]},
    {"smiles": "OC[C@H]1O[C@H](O[C@H]2O[C@H](CO)[C@@H](O)[C@H](O)[C@H]2O)[C@H](O)[C@@H](O)[C@@H]1O", "note": "[Trehalose]", "values": [
      {"measurement": "insulin response prior to exercise", "setting": "[9]", "result": "lower"},
      {"measurement": "plasma glucose response prior to exercise", "setting": "[9]", "result": "lower"},
      {"measurement": "prevalence of rebound hypoglycemia", "setting": "[9]", "result": "reduced"},
      {"measurement": "glycemic response", "setting": "[10]", "result": "lower"},
      {"measurement": "insulinemic response", "setting": "[10]", "result": "lower"},
      {"measurement": "influence on blood glucose levels", "setting": "[11]", "result": "almost flat response"},
      {"measurement": "adipocyte hypertrophy", "setting": "[12]", "result": "prevents"},
      {"measurement": "insulin resistance", "setting": "[12]", "result": "mitigates"}
    ]},
    {"smiles": "O=C[C@H](O)[C@@H](O)[C@@H](O)[C@H](O)CO", "note": "[galactose, reference compound]", "values": [
      {"measurement": "insulin response prior to exercise", "setting": "[9]", "result": "lower"},
      {"measurement": "plasma glucose response prior to exercise", "setting": "[9]", "result": "lower"},
      {"measurement": "prevalence of rebound hypoglycemia", "setting": "[9]", "result": "reduced"}
    ]},
    {"smiles": "OCC(O)CO", "note": "[glycerol]", "values": [
      {"measurement": "serum insulin concentration", "setting": "[13]", "result": "did not result in an increased"},
      {"measurement": "insulin response", "setting": "[1]; [16]", "result": "did not differ significantly from those after water alone"},
      {"measurement": "plasma glucose response", "setting": "[1]; [16]", "result": "did not differ significantly from those after water alone"}
    ]},
    {"smiles": "OC[C@H]1O[C@H](O[C@]2(CCl)O[C@H](CCl)[C@@H](O)[C@@H]2O)[C@H](O)[C@@H](O)[C@H]1Cl", "note": "[sucralose]", "values": [
      {"measurement": "postprandial insulin responses (FIG. 5)", "setting": "[14]", "result": "significantly lower than sucrose"}
    ]}
  ]
}
